Where a name gives a salt, the structure may show the parent alone. Marks after values point to notes of the source that are not given here.
Assays:
Format in all cases: physicochemical
[1] = Kinetic solubility in water and bio-relevant media (SGF, FaSSIF, FeSSIF) at RT; conditions: for solubility kinetic: water and bio-relevant media (SGF, FaSSIF, FeSSIF), water/bio-relevant media
Method: After being centrifuged and separated using 0.45 μm Nylon filter, filtrates were collected for HPLC and pH test, and wet cakes for XRPD characterization. If clear solutions were obtained after 24 hours, accurate concentration and purity were measured for the solutions.

[2] = Inter-conversion of crystal forms via storage and heating experiments
[3] = Solubility estimation in solvents at RT; conditions: organic solvent or mixture, thermodynamic from solid
Method: Solubility of Type A was estimated in nine solvents at RT. […] Approximately 2 mg solids were added into a 3-mL glass vial.

[4] = water and bio-relevant media (SGF, FaSSIF, FeSSIF) at RT

SMILES | S: Solubility ([1]; FaSSIF, RT, 1 hr) | S: Solubility ([1]; FaSSIF, RT, 2 hrs) | S: Solubility ([1]; FaSSIF, RT, 4 hrs) | S: Solubility ([1]; FaSSIF, RT, 24 hrs) | S: Solubility ([1]; SGF, RT, 1 hr) | S: Solubility ([1]; SGF, RT, 2 hrs) | S: Solubility ([1]; SGF, RT, 4 hrs) | S: Solubility ([1]; SGF, RT, 24 hrs) | S: Solubility ([1]; Water, RT, 1 hr) | S: Solubility ([1]; Water, RT, 2 hrs) | S: Solubility ([1]; Water, RT, 4 hrs) | S: Solubility ([1]; Water, RT, 24 hrs) | solubility compared with freebase Type A [1, 4] | S: Solubility ([1]; FeSSIF, RT, 1 hr) | also measured
CCOCc1nc2c(N)nc3ccccc3c2n1CC(C)(C)O [Adipate Type A, resiquimod] | 4.3 mg/mL | 4.5 mg/mL | 4.6 mg/mL | 4.5* mg/mL | 4.7 mg/mL | C (C: Clear) | C (C: Clear) | 4.7* mg/mL | 2.8 mg/mL | 2.7 mg/mL | 2.8 mg/mL | 2.7 mg/mL | improved or comparable solubility |  | FC: Solid form change ([1]; FaSSIF, RT, 1 hr): No; FC: Solid form change ([1]; Water, RT, 1 hr): No; FC: Solid form change ([1]; Water, RT, 2 hrs): No; FC: Solid form change ([1]; Water, RT, 4 hrs): No; FC: Solid form change ([1]; Water, RT, 24 hrs): No; Kinetic Solubility at RT ([1]; bio-relevant media): >4.2 (bio-relevant mg/mL; Kinetic Solubility at RT ([1]; water): ~2.7 (water) mg/mL
CCOCc1nc2c(N)nc3ccccc3c2n1CC(C)(C)O [Di-HCl salt Type A, resiquimod] | C (C: Clear) | C (C: Clear) | C (C: Clear) | 3.9* mg/mL | C (C: Clear) | C (C: Clear) | C (C: Clear) | 3.9* mg/mL |  |  |  |  | improved or comparable solubility | C (C: Clear) | S: Solubility ([1]; FeSSIF, RT, 2 hrs): C (C: Clear); S: Solubility ([1]; FeSSIF, RT, 4 hrs): C (C: Clear); S: Solubility ([1]; FeSSIF, RT, 24 hrs): 3.9* mg/mL
CCOCc1nc2c(N)nc3ccccc3c2n1CC(C)(C)O [Malate Type A, resiquimod] | C (C: Clear) | C (C: Clear) | C (C: Clear) | 3.7* mg/mL | C (C: Clear) | C (C: Clear) | C (C: Clear) | 4.3* mg/mL | C (C: Clear) | C (C: Clear) | C (C: Clear) | 3.7* mg/mL | improved or comparable solubility |  | solubility kinetic ([1]; water): > 3500 µg/mL
CCOCc1nc2c(N)nc3ccccc3c2n1CC(C)(C)O [Maleate Type A, resiquimod] | 2.2 mg/mL | 2.3 mg/mL | 2.4 mg/mL | 2.3 mg/mL | 1.4 mg/mL | 1.5 mg/mL | 1.6 mg/mL | 1.5 mg/mL | 0.93 mg/mL | 0.98 mg/mL | 1.1 mg/mL | 0.97 mg/mL |  |  | FC: Solid form change ([1]; FaSSIF, RT, 1 hr): No; FC: Solid form change ([1]; FaSSIF, RT, 2 hrs): No; FC: Solid form change ([1]; FaSSIF, RT, 4 hrs): No; FC: Solid form change ([1]; FaSSIF, RT, 24 hrs): No; FC: Solid form change ([1]; FeSSIF, RT, 1 hr): No; FC: Solid form change ([1]; FeSSIF, RT, 2 hrs): No; FC: Solid form change ([1]; FeSSIF, RT, 4 hrs): No; FC: Solid form change ([1]; FeSSIF, RT, 24 hrs): No; solubility compared with freebase Type A ([1]; SGF, FaSSIF, and FeSSIF at RT): decreased solubility; FC: Solid form change ([1]; SGF, RT, 1 hr): No; FC: Solid form change ([1]; SGF, RT, 2 hrs): No; FC: Solid form change ([1]; SGF, RT, 4 hrs): No; FC: Solid form change ([1]; SGF, RT, 24 hrs): No; FC: Solid form change ([1]; Water, RT, 1 hr): No; FC: Solid form change ([1]; Water, RT, 2 hrs): No; FC: Solid form change ([1]; Water, RT, 4 hrs): No; FC: Solid form change ([1]; Water, RT, 24 hrs): No; Kinetic Solubility at RT ([1]; bio-relevant media): ~1.5 (bio-relevant mg/mL; form change after kinetic solubility evaluation ([1]; remaining solids after suspended 24 hours, XRPD): no form change; Kinetic Solubility at RT ([1]; water): ~1.0 (water) mg/mL
CCOCc1nc2c(N)nc3ccccc3c2n1CC(C)(C)O [Mono-HCl salt Type A, resiquimod] |  |  |  |  | C (C: Clear) | C (C: Clear) | C (C: Clear) | 4.7* mg/mL |  |  |  |  | improved or comparable solubility | C (C: Clear) | solubility at 24 h ([1]; FaSSIF, thermodynamic from solid, FaSSIF, RT, 24 hrs, read-out: S: Solubility): 4500 µg/mL; S: Solubility ([1]; FeSSIF, RT, 2 hrs): C (C: Clear); S: Solubility ([1]; FeSSIF, RT, 4 hrs): C (C: Clear); S: Solubility ([1]; FeSSIF, RT, 24 hrs): 4.6* mg/mL; solubility kinetic ([1]; water, summary): > 3800 µg/mL
CCOCc1nc2c(N)nc3ccccc3c2n1CC(C)(C)O [Phosphate Type A, resiquimod] | C (C: Clear) | C (C: Clear) | C (C: Clear) | 4.3* mg/mL | C (C: Clear) | C (C: Clear) | C (C: Clear) | 4.0* mg/mL | C (C: Clear) | C (C: Clear) | C (C: Clear) | 3.9* mg/mL | improved or comparable solubility |  | 
CCOCc1nc2c(N)nc3ccccc3c2n1CC(C)(C)O [Sulfate Type A, resiquimod] | C (C: Clear) | C (C: Clear) | C (C: Clear) | 4.0* mg/mL | C (C: Clear) | C (C: Clear) | C (C: Clear) | 3.9* mg/mL | C (C: Clear) | C (C: Clear) | C (C: Clear) | 4.1* mg/mL | improved or comparable solubility | C (C: Clear) | 
CCOCc1nc2c(N)nc3ccccc3c2n1CC(C)(C)O [Type C, resiquimod] |  |  |  |  |  |  |  |  |  |  |  |  |  |  | form conversion on drying ([2]; dried at ambient conditions overnight): converted to Type A
CCOCc1nc2c(N)nc3ccccc3c2n1CC(C)(C)O [Type F, resiquimod] |  |  |  |  |  |  |  |  |  |  |  |  |  |  | form conversion on storage ([2]; storage at ambient conditions for 2 days): converted to Type A
CCOCc1nc2c(N)nc3ccccc3c2n1CC(C)(C)O [sulfate Type A (807919-21-A)] |  |  |  |  |  |  |  |  |  |  |  |  |  |  | solubility ([3]; ACN): < 2200 µg/mL; solubility ([3]; DMAc): > 40000 µg/mL; solubility ([3]; DMSO): > 44000 µg/mL; solubility ([3]; EtOAc): < 2200 µg/mL; solubility ([3]; IPAc): < 2000 µg/mL; solubility ([3]; MEK): < 2000 µg/mL; solubility ([3]; MIBK): < 2100 µg/mL; solubility ([3]; MTBE): < 2300 µg/mL; solubility ([3]; NMP): > 44000 µg/mL; solubility ([3]; anisole): < 2200 µg/mL; solubility ([3]; n-heptane): < 2100 µg/mL; solubility ([3]; toluene): < 2000 µg/mL

Reference: US20260248780A1, “PHARMACEUTICAL COMPOSITIONS” (Birdie Biopharmaceuticals, Inc., priority 2017, published 2026)
